Like-named read-outs stand apart in the source and are kept apart here.
What was measured:
[1] = Leaching of infiltrated oil in a microfluidic system under water flow; type: physicochemical
Experimental: Experiments were conducted to determine whether fluid from SLIPS leach into the surrounding biological fluid. A nanostructured post array surface (2 μm tall posts, 300 nm diameter, 0.9 μm spacing) with infiltrated perfluorinated oil (Fluorinert FC-70) was integrated into a microfluidic system. Deionized water flowed into the channel at a rate of 12 mL/min (i.e., 720 mL/hr) for 5 minutes. […] The slipperiness of the surface was examined by putting a droplet of decane on the surface. If decane applied to the surface maintains its mobility on the surface, then the lubricants remain attached on the structured surface. However, if decane remains pinned on the surface, the lubricant layer has not been maintained. Leaching can also be monitored by extracting fluid that has passed over SLIPS into a fluorinated solvent followed by followed by chromatography and mass spectrometry and 19F-NMR.
Defining maximum leaching of the infiltrated fluid as the ratio between the total amounts of the perfluorinated oil infiltrated the surface and the volume of water processed in the microfluidic system, the maximum leaching was <0.2%. Because perfluorocarbons are already approved by the Food and Drug Administration as blood substitutes, leaching of this amount of oil is expected to be harmless. […]

[2] = Contact angles of various liquids on flat solids; type: physicochemical; parameters: unit not given here
Experimental: The behavior of liquids on surfaces is described by an equilibrium contact angle. An equilibrium contact angle, θ, is the angle at which a liquid/vapor interface meets a solid surface, which is determined by the interactions across the three interfaces, e.g., solid/liquid/vapor. […] The upper limit is known as the apparent advancing contact angle (θA), whereas the lower limit is referred as the apparent receding contact angle (θR). The difference between these values is known as contact angle hysteresis (i.e., Δθ=θA−θR, where θA≥θ≥θR), which characterizes the liquid repellency of a surface. Conventionally, equilibrium contact angle can be roughly estimated by the average of the advancing and receding angles (i.e., θ=(θA+θR)/2), or by a static contact angle, θstatic (i.e., θ=θstatic).
In practice, contact angle measurement can be performed by a number of different well-established techniques, such as the sessile drop method and the Wilhelmy method. In particular, the sessile drop method is among the most popular technique for contact angle measurement. In this technique, a liquid droplet is deposited on a targeted solid surface, where the liquid profile is captured by an optical system of a goniometer and geometrically fitted to obtain the contact angle. The contact angle measured from a static liquid droplet deposited on the surface is known as the static contact angle, θstatic. Using the same system, advancing contact angle, θA, can be measured while the volume of the drop is increasing until the wetting line starts to advance. Receding contact angle, θR, can be measured by decreasing the volume of the drop and determining the contact angle just before the wetting line recedes. Alternatively, the advancing and the receding angles of the liquid drop can also be determined by gradually tilting the solid surface until the liquid drop starts to move.

P. aeruginosa = settings: 1% and 0.1% concentrations; 3, 6, 9, and 30 hours; 550 nm
[3] = tested on: Pseudomonas aeruginosa (PA-14); test: Toxicity screening of lubricating fluids by CFU quantification; settings: 1% versus 0.01% of product in tryptone broth, 37° C. overnight, orbital shaker
Experimental: (§1) The toxicity screening assay was based on adding 1% and 0.01% of each commercial product to 10 mL aliquots of tryptone broth, which were inoculated with 1% initial seeding concentration of Pseudomonas aeruginosa (PA-14) preculture and incubated at 37° C. overnight in an orbital shaker. The shaken culture was serially diluted, plated, and incubated for colony forming unit (CFU) quantification.

[4] = Surface tension of polar and non-polar liquids; type: physicochemical
Source text: Fluid-fluid interfacial tension can be measured by many well-established techniques, such as the Wilhelmy plate method, the Du Noüy ring method, and the pendant drop method (e.g., see Drelich et al., in Encyclopedia of Surface and Colloid Science, pp. 3152-3166, Marcel Dekker Inc, 2002, the contents of which is incorporated by reference herein in its entirety). Among all of the techniques, the pendant drop method is among the most popular and versatile technique, which can be easily extended to a two-liquid system. The pendant drop method measures the shape of a fluid-fluid interface and quantifies the shape distortion due to the competition between the fluid-fluid interfacial tension and gravity. In practice, a drop of denser fluid (e.g., Object A) is suspended by a syringe needle in medium X (i.e., air/water/the lubricating fluid). Owing to the influence of gravity, the denser liquid droplet will be deformed as the liquid volume increases. The shape profile of the liquid droplet is captured by an optical system and subsequently analyzed by a computer software when the liquid volume is increased to the maximum possible size (i.e., before the liquid drop is detached from the syringe needle). The interfacial tension of the fluid-fluid interface, γ, can then be deduced from the formula, γ=ΔρgD^2/H, where Δρ is the density difference between the two immiscible fluids, g is gravity, D is equatorial diameter of the liquid droplet, and H is drop shape dependent parameters which is a function of the shape profile of the droplet.

[5] = tested on: Pseudomonas aeruginosa (PA-14)
Experimental: as §1

[6] = flat solid S. (silanized epoxy)

Structure (SMILES)	retention of infiltrated oil on nanostructured surface ([1]; deionized water 12 mL/min for 5 minutes, nanostructured post array)	maximum leaching ([1]; ratio of total infiltrated oil to volume of water processed)	Measured contact angle θadv ([2]; flat solid Epoxy)	Measured contact angle θrec ([2]; flat solid Epoxy)	Measured contact angle θstatic ([2]; flat solid Epoxy)	Measured contact angle θadv [2, 6]	Measured contact angle θrec [2, 6]	Measured contact angle θstatic [2, 6]	bacterial growth (optical densities) compared to control culture (P. aeruginosa)	toxicity screening, CFU [3]	Surface Tension [4]	toxicity screening, CFU [5]
FC(F)(F)C(F)(F)C(F)(F)C(F)(F)C(F)(F)N(C(F)(F)C(F)(F)C(F)(F)C(F)(F)C(F)(F)F)C(F)(F)C(F)(F)C(F)(F)C(F)(F)C(F)(F)F [FC-70, perfluoro-tripentylamine]	remained intact	< 0.2%	35.1 ± 0.6	26.7 ± 1.4	33.5 ± 1.1	23.7 ± 4.1	0.0 ± 0.0	14.1 ± 0.8	statistically indistinguishable bacterial growth	Significantly reduced CFU	17.1 ± 0.3 mN/m	–
FC1(F)C(F)(F)C(F)(F)C2(F)C(F)(F)C(F)(F)C(F)(F)C(F)(F)C2(F)C1(F)F (stereo not shown) [Perfluorodecalin]	–	–	–	–	–	–	–	–	statistically indistinguishable bacterial growth	–	–	Significantly reduced CFU
